From ChEMBL document CHEMBL3351365, “Short oligonucleotide prodrug having 5-fluoro and 5-iodouracil inhibits the proliferation of cancer cells in a photo-responsive manner” (Bioorg Med Chem Lett, 2014)

Experiment: Retention time of the compound treated with FU'U ODN by HPLC analysis
Assay type: physicochemical

Q: For `O=c1[nH]c(=O)n([C@H]2C[C@H](O)[C@@H](CO)O2)cc1F` [FLOXURIDINE], which Retention_time is on record?
A: 19 min
